# Measurements reported in ChEMBL document CHEMBL6134909 (Eur J Med Chem, 2025).
# Columns and labels:
# [1] = Metabolic stability in human liver microsomes assessed as compound remaining at 2 to 10 uM measured after 60 mins in presence of NADPH by LC-MS/MS analysis; type: ADME, Microsome; details: dose 2-10 µM, read-out: Stability
# [2] = Metabolic stability in human liver microsomes assessed as compound remaining at 2 to 10 uM measured after 60 mins in absence of NADPH by LC-MS/MS analysis; type: ADME, Microsome; details: dose 2-10 µM, read-out: Stability
# [3] = MRT (infinity) in CD1 mouse at 25 mg/kg, ip; type: ADME, organism-based; details: in vivo
# [4] = Metabolic stability in BALB/c mouse liver microsomes assessed as compound remaining at 2 to 10 uM measured after 60 mins in presence of NADPH by LC-MS/MS analysis; type: ADME, Microsome; details: dose 2-10 µM, read-out: Stability
# [5] = Metabolic stability in mouse plasma at 2 uM measured after 60 mins by LC-MS/MS analysis; type: ADME, cell-free; details: 1 h
# [6] = Clearance in CD1 mouse at 25 mg/kg, ip; type: ADME, organism-based; details: in vivo
# [7] = Tmax in CD1 mouse at 25 mg/kg, ip; type: ADME, organism-based; details: in vivo
# [8] = Cmax in CD1 mouse at 25 mg/kg, ip; type: ADME, organism-based; details: in vivo
# [9] = Apparent volume of distribution in CD1 mouse at 25 mg/kg, ip; type: ADME, organism-based; details: in vivo
# [10] = Metabolic stability in human plasma at 2 uM measured after 60 mins by LC-MS/MS analysis; type: ADME, cell-free; details: 1 h
# Influenza A virus [11] = experiment: Anti-viral activity against Influenza A virus H7N1 pseudotype infected in human A549 cells assessed as inhibition of viral entry incubated for 48 hrs by Neolite Reporter Gene Assay; type: functional, organism-based; details: H7N1, A549, 48 h
# [12] = Metabolic stability in BALB/c mouse liver microsomes assessed as compound remaining at 2 to 10 uM measured after 60 mins in absence of NADPH by LC-MS/MS analysis; type: ADME, Microsome; details: dose 2-10 µM, read-out: Stability
# [13] = Cytotoxicity against human A549 cells incubated for 48 hrs by CellTiter-Glo Luminescent Cell Viability Assay; type: toxicity, cell-based
# [14] = AUC (infinity) in CD1 mouse at 25 mg/kg, ip; type: ADME, organism-based; details: in vivo
# [15] = Half life in CD1 mouse at 25 mg/kg, ip; type: ADME, organism-based; details: in vivo
# Influenza A virus [16] = experiment: Anti-viral activity against wild-type Influenza A virus H7N1 pseudotype infected in human A549 cells assessed as inhibition of viral entry incubated for 48 hrs by Neolite Reporter Gene Assay; type: functional, organism-based; details: H7N1, A549, 48 h
smiles,measurement,setting,value
Fc1cc(OCc2ccc(C(F)(F)F)cc2)ccc1-c1nc2ncccn2c1NC1CCCCC1,"remaining at 1 h, up to 10 µM",[1],36%
same,"remaining at 1 h, up to 10 µM",[2],105%
same,MRT inf,[3],6.25 h
same,"remaining at 1 h, up to 10 µM",[4],60.5%
same,Stability,[5],Stable
same,CL/F,[6],12.8 mL/min/kg
same,Tmax,[7],2.67 h
same,Cmax,[8],2930 ng/mL
same,Vz,[9],4.226 L/kg
same,Stability,[10],Stable
same,EC50,Influenza A virus [11],0.47 µM
same,"remaining at 1 h, up to 10 µM",[12],104%
same,CC50 at 48 h,[13],> 100 µM
same,AUC(0-inf),[14],33900 ng·h/mL
same,half-life,[15],3.82 h
Oc1ccc(-c2nc3ncccn3c2NC2CCCCC2)c(F)c1,"remaining at 1 h, up to 10 µM",[1],68.9%
same,"remaining at 1 h, up to 10 µM",[2],115%
same,MRT inf,[3],0.842 h
same,"remaining at 1 h, up to 10 µM",[4],72.7%
same,Stability,[5],Stable
same,EC50,Influenza A virus [16],0.11 µM
same,CL/F,[6],114 mL/min/kg
same,Tmax,[7],0.083 h
same,Cmax,[8],14500 ng/mL
same,Vz,[9],35.639 L/kg
same,Stability,[10],Stable
same,EC50,Influenza A virus [11],0.09 µM
same,"remaining at 1 h, up to 10 µM",[12],101%
same,CC50 at 48 h,[13],> 100 µM
same,AUC(0-inf),[14],3660 ng·h/mL
same,half-life,[15],3.61 h
